Data: patent publication US8835428B2, “Diacylglycerol acyltransferase inhibitors” (Piramal Enterprises Limited, priority 2008, dated 2014)

Target: T1, hDGAT1 (Homo sapiens, UniProt O75907)
T1 construct: host or cells: Sf9 insect cells (baculovirus); microsomal preparation
T1 sequence (O75907 1-488): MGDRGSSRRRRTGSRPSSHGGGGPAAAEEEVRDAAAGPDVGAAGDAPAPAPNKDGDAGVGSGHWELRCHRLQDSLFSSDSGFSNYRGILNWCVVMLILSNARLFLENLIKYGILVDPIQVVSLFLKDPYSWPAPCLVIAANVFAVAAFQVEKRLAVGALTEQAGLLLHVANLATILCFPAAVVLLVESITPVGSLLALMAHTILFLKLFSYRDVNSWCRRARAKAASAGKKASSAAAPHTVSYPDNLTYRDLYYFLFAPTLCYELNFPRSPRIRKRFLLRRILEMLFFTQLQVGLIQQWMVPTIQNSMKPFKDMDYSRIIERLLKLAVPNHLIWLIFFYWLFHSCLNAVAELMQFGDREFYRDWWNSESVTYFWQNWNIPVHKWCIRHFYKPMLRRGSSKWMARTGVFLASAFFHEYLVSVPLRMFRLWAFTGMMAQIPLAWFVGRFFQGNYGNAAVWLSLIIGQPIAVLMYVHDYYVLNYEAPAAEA
Assay: In-vitro DGAT1 assay (hDGAT1 microsomes from Sf9 cells, 14C oleoyl CoA, triglyceride formation)
Type: biochemical
How it was run: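 Compounds tested in duplicate at 10, 5 and 1 μM for 10 min at 37 °C. Reaction: Sf9-expressed hDGAT1 microsomes (2.5–10 μg), [14C]oleoyl-CoA plus 409.5–1638 μM dioleoylglycerol, pH 7.4 Tris-HCl with fatty-acid-free BSA. Radiolabelled triglyceride extracted into heptane and scintillation-counted.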

Row | Compound | inhibition at 1 µM | inhibition at 5 µM (At 5 μM) | further results
1 | COC[C@H](NC(=NO)c1cc(-c2cccc(Nc3nc4ccc(F)cc4s3)c2)no1)C(=O)OC [Example 32, (S)-2-({3-[3-(6-Fluoro-benzothiazol-2-ylamino)-phenyl]-N-hydroxy-isoxazole-5-carboximidoyl}-amino)-3-methoxy-propionic acid methyl ester] |  |  | inhibition at 10 µM (At 10 μM): 0 to 50%
2 | CC(C)c1ccc(NC(=O)Nc2ccc(-c3cc(C(=O)N[C@H](C(=O)O)C(C)C)on3)cc2)cc1 [Example 228, (S)-2-(3-(4-(3-(4-Isopropylphenyl)ureido)phenyl)isoxazole-5-carboxamido)-3-methylbutanoic acid] | 75 to 100% |  | 
3 | COC(=O)CCCNC(=O)c1cc(-c2ccc(NC(=O)Nc3ccc(C)cc3)cc2)no1 [Example 255, Methyl 4-(3-(4-(3-p-tolylureido)phenyl)isoxazole-5-carboxamido) butanoate] |  |  | % inhibition of hDGAT1 (At 5 μM): + (>0% Inhibition ≦50)
4 | CC(C)C(NC(=O)c1cc(-c2ccc(Oc3nc4ccc(F)cc4s3)cc2)no1)C(=O)O (centres unmarked) [Example 335, 2-(3-(4-(6-fluorobenzo[d]thiazol-2-yloxy)phenyl)isoxazole-5-carboxamido)-3-methylbutanoic acid] | 0 to 50% |  | 
5 | COC(=O)C(NC(=O)c1cc(-c2ccc(NC(=O)Nc3cccc(F)c3)cc2)no1)C(C)C (centres unmarked) [Example 151, Methyl 2-(3-(4-(3-(3-fluorophenyl)ureido)phenyl)isoxazole-5-carboxamido)-3-methylbutanoate] |  | 50 to 75% | 
6 | Cc1ccc(NC(=O)Nc2ccc(-c3cc(C(=O)NC(C(=O)O)C(C)C)on3)cc2)cc1Cl (centres unmarked) [Example 248, 2-(3-(4-(3-(3-Chloro-4-methylphenyl)ureido)phenyl)isoxazole-5-carboxamido)-3-methylbutanoic acid] | 75 to 100% |  | 
7 | Cc1ccc(NC(=O)Nc2ccc(-c3cc(C(=O)NC(Cc4ccccc4)C(=O)O)on3)cc2)cc1 (centres unmarked) [Example 244, 3-Phenyl-2-(3-(4-(3-p-tolylureido)phenyl)isoxazole-5-carboxamido) propanoic acid] |  | 50 to 75% | 
8 | CC(C)C(NC(=O)c1cc(-c2ccc(NC(=O)Nc3cccc(F)c3)cc2)no1)C(=O)O (centres unmarked) [Example 152, 2-(3-(4-(3-(3-fluorophenyl)ureido)phenyl)isoxazole-5-carboxamido)-3-methylbutanoic acid] |  | 75 to 100% | 
